Counter-ions that a name gives are not always drawn.
Tests used:
Format in all cases: in vivo
[1] = tested on: rats; assay: Antidepressant and psychomotor stimulant activity in rats, intraperitoneal; conditions: i.p., 3.2 mg./kg. to 32 mg./kg.
Source text: (§1) As previously indicated, the 1-amino-4-phenyltetralin compounds of this invention (in the form of their trans-isomers) are all readily adapted to therapeutic use as psychotropic agents, particularly in view of their potent antidepressant and psychomotor stimulant properties. […] The other compounds of this invention also cause similar results. Furthermore, all the herein described trans-isomers of this invention can be administered as psychotropic agents by either the oral or parenteral routes of administration, for the present purposes at hand, without causing any significant untoward pharmacological side effects to occur in the subject to whom they are so administered. In general, these psychotropic compounds are normally administered in dosages ranging from about 0.3 mg., to about 10 mg. per kg. of body weight per day, although variations will necessarily occur depending upon the weight and conditions of the subject being treated and the particular route of administration chosen.

[2] = tested on: motor activity in mice; avoidance behavior in rats; assay: Psychomotor stimulant activity (motor activity in mice; Sidman avoidance in rats); conditions: as the hydrochloride salt
Source text: On the other hand, the activity of the compounds of the present invention, as psychomotor stimulants, is based on a variety of tests, including (1) a study of their motor activity in mice and (2) a measurement of their ability to influence the loss of avoidance behavior in rats trained on a non-discriminated (Sidman) avoidance schedule.

[3] = tested on: non-discriminated (Sidman) avoidance behavior rats; assay: Non-discriminated (Sidman) avoidance behavior in rats; conditions: 5 mg./kg. and 10 mg./kg. i.p.
Source text: Eight (8) mature male rats were trained in Lehigh Valley automatic multiple-operant conditioning chambers to avoid a 2.0 mA electric shock that would last for 0.75 second, or terminate sooner if the rat lever became activated during the shock. In these tests, lever presses postponed the onset of shock for an initial period of 30 seconds, while only 10 seconds elapsed between shocks if no intervening response was elicited. The rats were run for a 40-minute control period before receiving the drug and then for approximately 2.5 hours after each treatment.

[4] = tested on: reserpine-induced hypothermia in the mouse; assay: Reversal of reserpine-induced hypothermia in the mouse; conditions: 32 mg./kg. i.p., 2 hours after dosing; reserpine 2 mg./kg. s.c. 18 hours before; saline control 25.1° ± 3.2° C.
Experimental: The 1-amino-4-phenyltetraline final products of Examples III-IX were tested for antidepressant activity by measuring their ability to reverse reserpine-induced hypothermia in the mouse according to the procedure described by B.M. Askew in Life Science, Vol. 2, p. 725 (1963). In this test, all the animals were individually housed in plastic chambers with a cardboard bottom. The mice were injected with reserpine subcutaneously at 2 mg./kg. and retained at an ambient temperature of 20° C. for a period of 18 hours. At this point, their rectal temperatures were initially ascertained and immediately thereafter they were divided into groups of 5-20 animals for testing purposes. Each group then received either saline as a control or the compound to be tested at a dose level of 32 mg./kg., administered intraperitoneally, and the resulting rectal temperatures were measured two hours later. In the table below, the entries are reported as mean rectal temperatures for each compound at the 2-hour mark, together with the number of animals tested in each particular group.

[5] = Toxic / untoward side effects on administration; conditions: rats, i.p., 3.2 mg./kg. to 32 mg./kg.
Source text: as §1

[6] = tested on: spontaneous motor activity in mice; assay: Spontaneous motor activity in mice (actophotometer activity counts)
Experimental: A total of seven mice was employed at each dose level tested (viz., at 0.32, 1.0, 3.2, 10 and 32 mg./kg., i.p., respectively) and these mice were separated one to an activity cage. After an initial one-half hour exposure period (for acclimation purposes), each animal in the cage was treated with a sample of the drug intraperitoneally and immediately thereafter returned to said cage, with activity counts every one-half hour being recorded from that point on.

CN[C@@H]1CC[C@@H](c2ccccc2)c2ccccc21 [Trans-d-isomer of Example III, trans-d-N-methyl-4-phenyl-1,2,3,4-tetrahydro-1-naphthylamine as the hydrochloride]
antidepressant and psychomotor stimulant activity [1]: marked antidepressant and psychomotor stimulant activity | duration of motor stimulant activity [2]: long duration of motor stimulant activity | onset of action [2]: rapid onset of action | potency as psychomotor stimulant compared with methylphenidate [2]: comparable in potency to methylphenidate | duration of drug effect after administration [3]: approximately one and a half | start of drug effect [3]: ≤ 20 min | increase of response rates over normal pre-drug control levels ([3]; four out of eight rats): 2-6 times | response rates ([3]; four out of eight rats): moderate to marked increase in response rates | increase of response rates over pre-drug control levels ([3]; two other rats): about 1.5 times | Mean Rectal Temperature, Temp. (° C.) ±S.D. [4]: 34.1 ± 0.7 °C | signs of toxic side effects [5]: without showing any substantial signs of toxic side effects | duration of effect compared with d-amphetamine sulfate ([6]; 10 mg./kg. i.p. vs d-amphetamine sulfate at 3.2 mg./kg.): even more prolonged in its effect than did that of d-amphetamine sulfate | effect on activity counts compared with d-amphetamine sulfate ([6]; 10 mg/kg. i.p. vs d-amphetamine sulfate at 3.2 mg./kg.): more pronounced than that of d-amphetamine sulfate | effect on activity counts compared with methylphenidate ([6]; 10 mg/kg. i.p. vs methylphenidate at 10 mg./kg.): surpassing even that of methylphenidate | activity counts ([6]; 10 mg/kg.(i.p.), 30-60 minutes after treatment): markedly elevated the activity counts
